This is an account of results in PubChem BioAssay (NCI).

Test systems include OVCAR-8 ovarian; U251 CNS; OVCAR-3 ovarian; MALME-3M melanoma; UACC-62 melanoma; SR leukemia; HL-60(TB) leukemia; 786-0 renal; ACHN renal; OVCAR-4 ovarian.
Holding throughout (experiment): NCI-60 cell line screen, 48 h

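These data come from cells grown in 96-well plates and exposed to compound for 48 hours at five concentrations. The concentration for 50% growth inhibition is given as GI50. TGI: total growth inhibition.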

`CC(C)C/C(=N\NC(=O)c1ccncc1)c1cc(Cl)ccc1O`: the GI50 in the test on OVCAR-8 ovarian was 0.255 µM; in the test with U251 CNS it was 0.303 µM; in the test on OVCAR-3 ovarian it was 0.204 µM; in the test with MALME-3M melanoma it was 1.65 µM; in the test on UACC-62 melanoma, 0.451 µM; with SR leukemia, 0.206 µM. Further, the GI50 was 0.295 µM in the test on HL-60(TB) leukemia, 0.412 µM with 786-0 renal, 0.157 µM in the test on ACHN renal and 0.26 µM in the test on OVCAR-4 ovarian. Further, the TGI with OVCAR-8 ovarian is above 49.2 µM; in the test with U251 CNS, above 72.1 µM; with OVCAR-3 ovarian it was 5.24 µM; in the test on MALME-3M melanoma, 16.7 µM; in the test on UACC-62 melanoma, 8.08 µM; with SR leukemia it was 29 µM. The TGI in the test with HL-60(TB) leukemia was 2.26 µM; with 786-0 renal, 11.8 µM; in the test on ACHN renal, above 41.1 µM; with OVCAR-4 ovarian, above 32.4 µM.
On to `CCN(CC)CCS(=O)(=O)CCNc1ccnc2cc(Cl)ccc12`, for which the GI50 in the test with OVCAR-8 ovarian is 2.54 µM; with U251 CNS it was 3.17 µM; in the test with OVCAR-3 ovarian it was 1.47 µM; in the test with MALME-3M melanoma, 2.15 µM; in the test on UACC-62 melanoma, 3.83 µM; in the test with SR leukemia it was 0.812 µM. The GI50 with HL-60(TB) leukemia is 1.37 µM; in the test with 786-0 renal, 2.84 µM; in the test on ACHN renal, 1.49 µM; with OVCAR-4 ovarian, 2.07 µM. Besides, the TGI with OVCAR-8 ovarian is above 27.3 µM; with U251 CNS, 13.9 µM; in the test with OVCAR-3 ovarian, 15.3 µM; in the test with MALME-3M melanoma, 13.3 µM; with UACC-62 melanoma, 29.6 µM; in the test on SR leukemia, above 46.3 µM. The TGI with HL-60(TB) leukemia is 20 µM; with 786-0 renal it was 19.9 µM; in the test on ACHN renal it was 29.8 µM; in the test with OVCAR-4 ovarian it was above 62.2 µM.
As to `Cn1cc(NC(=O)c2cc(NC(=O)CCCCCCCC(=O)Nc3cc(C(=O)Nc4cc(C(=O)NCCC(=N)N)n(C)c4)n(C)c3)cn2C)cc1C(=O)NCCC(=N)N`, the TGI in the test on OVCAR-8 ovarian was 42.9 µM; in the test on U251 CNS it was 44.6 µM; in the test on OVCAR-3 ovarian, 65.7 µM; with MALME-3M melanoma, 20.1 µM; in the test with UACC-62 melanoma, 36.8 µM; in the test with SR leukemia, 92.7 µM. Besides, the TGI in the test on HL-60(TB) leukemia was 16.3 µM; in the test with 786-0 renal it was above 100 µM; in the test on ACHN renal, above 100 µM; in the test with OVCAR-4 ovarian, above 100 µM.
As to `CC1(C)N=C(N)N=C(N)N1c1ccc(OCCCCNC(=O)Nc2cccc(S(=O)(=O)F)c2)c(Cl)c1`, the GI50 with OVCAR-8 ovarian was 4.28 µM; in the test on U251 CNS, 0.674 µM; with OVCAR-3 ovarian, 6.89 µM; with MALME-3M melanoma it was 29.6 µM; in the test on UACC-62 melanoma it was 0.491 µM; with SR leukemia, 1.02 µM. For the same compound, the GI50 is 0.61 µM in the test with HL-60(TB) leukemia, 2.75 µM in the test with 786-0 renal, 22.3 µM in the test on ACHN renal and 13.3 µM in the test on OVCAR-4 ovarian. Further, the TGI with OVCAR-8 ovarian, in the test with U251 CNS, with OVCAR-3 ovarian, with MALME-3M melanoma, in the test with UACC-62 melanoma and in the test on SR leukemia was above 100 µM in each case. The TGI in the test on HL-60(TB) leukemia, in the test on 786-0 renal, in the test with ACHN renal and in the test on OVCAR-4 ovarian was above 100 µM throughout.
In the case of `O=C1c2ccoc2C(=O)c2oc(=O)ccc21`, the TGI with OVCAR-8 ovarian is 14.9 µM; in the test with U251 CNS, 20.8 µM; in the test on OVCAR-3 ovarian, 8.69 µM; in the test with MALME-3M melanoma, 7.84 µM; with UACC-62 melanoma it was 31.5 µM; in the test with SR leukemia, 3.83 µM. Besides, the TGI in the test with HL-60(TB) leukemia is 6.8 µM; in the test with 786-0 renal, 30.8 µM; with ACHN renal it was 8.43 µM; in the test on OVCAR-4 ovarian, 13.5 µM.
In the case of `Nc1n[nH]c2ccc([C@@H]3Nc4c(F)cc5[nH]ncc5c4[C@H]4C5CCC(C5)[C@@H]34)cc12` (stereo not given in full), the GI50 with OVCAR-8 ovarian was 0.468 µM; in the test with U251 CNS, 0.376 µM; in the test on OVCAR-3 ovarian it was 0.216 µM; in the test with MALME-3M melanoma it was 1.38 µM; in the test with UACC-62 melanoma, 0.242 µM; with SR leukemia, 0.0779 µM. Besides, the GI50 with HL-60(TB) leukemia is 0.243 µM; in the test with 786-0 renal, 0.74 µM; in the test with ACHN renal, 0.912 µM; with OVCAR-4 ovarian, 5.81 µM. The TGI with OVCAR-8 ovarian was above 100 µM; in the test with U251 CNS, 17.3 µM; in the test with OVCAR-3 ovarian, 0.735 µM; with MALME-3M melanoma, above 57.9 µM; with UACC-62 melanoma it was above 44.9 µM; in the test on SR leukemia, 15.1 µM. In addition, the TGI was 0.642 µM in the test on HL-60(TB) leukemia, 25 µM in the test on 786-0 renal, above 64.7 µM in the test with ACHN renal and above 85.8 µM with OVCAR-4 ovarian.
`O=c1c2cccc3cccc(c4n1CCCN=4)c32`: the TGI in the test with OVCAR-8 ovarian, in the test with U251 CNS, in the test on OVCAR-3 ovarian, in the test with MALME-3M melanoma, in the test with UACC-62 melanoma and with SR leukemia was above 100 µM throughout. For the same compound, the TGI with HL-60(TB) leukemia, in the test with 786-0 renal, in the test with ACHN renal and in the test with OVCAR-4 ovarian was above 100 µM in each case.
With `CN1CC[C@]23c4c5ccc(O)c4OC2c2[nH]ncc2C[C@H]3[C@H]1C5` (stereo not given in full), the TGI in the test with OVCAR-8 ovarian, with U251 CNS, in the test with OVCAR-3 ovarian, in the test on MALME-3M melanoma, with UACC-62 melanoma and in the test with SR leukemia was above 100 µM each time. Moreover, the TGI in the test with HL-60(TB) leukemia, in the test with 786-0 renal, in the test with ACHN renal and in the test with OVCAR-4 ovarian was above 100 µM throughout.
For `CCN(CCNc1ccc(C)c2sc3cc(Cl)ccc3c(=O)c12)CC(C)(C)O`, the GI50 in the test on OVCAR-8 ovarian was 22.5 µM; with U251 CNS, 4.51 µM; in the test on OVCAR-3 ovarian, 18.6 µM; with MALME-3M melanoma, 2.16 µM; in the test on UACC-62 melanoma it was 1.67 µM; with SR leukemia it was 9.48 µM. The GI50 in the test with HL-60(TB) leukemia was 12.2 µM; in the test with 786-0 renal it was 5.13 µM; in the test on ACHN renal, 12.7 µM; with OVCAR-4 ovarian it was 24.6 µM. The TGI was above 100 µM in the test on OVCAR-8 ovarian; 18.5 µM in the test with U251 CNS; 62.9 µM in the test with OVCAR-3 ovarian; 7.3 µM in the test on MALME-3M melanoma; 3.37 µM in the test with UACC-62 melanoma; above 100 µM in the test on SR leukemia. For the same compound, the TGI in the test with HL-60(TB) leukemia is 44.7 µM; with 786-0 renal it was 17.7 µM; in the test on ACHN renal it was 65 µM; with OVCAR-4 ovarian it was above 100 µM.
